From ChEMBL document CHEMBL4229497, “Design and synthesis of benzofuro[3,2-b]pyridin-2(1H)-one derivatives as anti-leukemia agents by inhibiting Btk and PI3Kδ” (Bioorg Med Chem, 2018)
Activity calls are given as the source filed them. The calls are words filed in the database; no cut-off is given here.

Legend:
Raji [1] = assay: Antiproliferative activity against human Raji cells after 48 hrs by MTT assay; format: functional, cell-based
HL-60 [2] = assay: Antiproliferative activity against human HL60 cells after 48 hrs by MTT assay; format: functional, cell-based; settings: HL-60, 48 h
K562 [3] = assay: Antiproliferative activity against human K562 cells at 40 uM after 48 hrs by MTT assay relative to control; format: functional
K562 [4] = assay: Antiproliferative activity against human K562 cells after 48 hrs by MTT assay; format: functional, cell-based; settings: K562, 48 h
K562 [5] = assay: Inhibition of PI3K/Akt/mTOR pathway in human K562 cells assessed as reduction in Akt phosphorylation at Ser-473 residue at 1 uM after 24 hrs by Western blot analysis; format: cell-based
[6] = biological target: Tyrosine-protein kinase BTK (Homo sapiens, UniProt Q06187); assay: Inhibition of recombinant full length human N-terminal His tagged BTK expressed in baculovirus infected Sf9 cells using poly (4:1 Glu, Tyr) as substrate after 60 mins by ADP-Glo assay
Chain of Tyrosine-protein kinase BTK (Q06187 whole entry): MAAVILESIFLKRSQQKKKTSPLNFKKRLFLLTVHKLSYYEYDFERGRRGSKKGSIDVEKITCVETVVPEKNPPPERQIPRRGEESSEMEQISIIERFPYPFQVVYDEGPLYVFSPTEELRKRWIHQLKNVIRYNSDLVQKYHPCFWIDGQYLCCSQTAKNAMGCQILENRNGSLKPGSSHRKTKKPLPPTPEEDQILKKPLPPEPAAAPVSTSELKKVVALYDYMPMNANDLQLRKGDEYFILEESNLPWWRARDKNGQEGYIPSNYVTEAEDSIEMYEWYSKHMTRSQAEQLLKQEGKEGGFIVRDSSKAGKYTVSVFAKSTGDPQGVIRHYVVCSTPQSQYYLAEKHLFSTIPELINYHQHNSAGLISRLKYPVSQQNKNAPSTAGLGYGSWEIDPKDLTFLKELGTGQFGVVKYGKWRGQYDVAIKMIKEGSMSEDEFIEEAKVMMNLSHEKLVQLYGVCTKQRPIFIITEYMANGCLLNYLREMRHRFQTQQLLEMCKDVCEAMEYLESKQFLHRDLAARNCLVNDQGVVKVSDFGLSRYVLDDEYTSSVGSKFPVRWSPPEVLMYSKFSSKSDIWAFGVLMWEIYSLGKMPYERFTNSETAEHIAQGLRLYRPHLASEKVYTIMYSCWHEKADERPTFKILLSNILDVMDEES

[7] = biological target: PI3-kinase p110-delta/p85-alpha (Homo sapiens) (UniProt P27986+O00329); assay: Inhibition of recombinant human full length N-terminal His-tagged PI3K p110delta/p85alpha at 200 nM using lipid substrate after 60 mins by ADP-Glo assay relative to control; format: protein-complex assay
[8] = biological target: PI3-kinase p110-delta/p85-alpha (Homo sapiens, UniProt O00329); assay: Inhibition of recombinant human full length N-terminal His-tagged PI3K p110delta/p85alpha using lipid substrate after 60 mins by ADP-Glo assay; format: protein-complex assay
[9] = biological target: PI3-kinase p110-alpha/p85-alpha (Homo sapiens, UniProt P42336); assay: Inhibition of recombinant human full length His-tagged PI3K p110alpha/p85alpha expressed in baculovirus expression system using lipid substrate after 60 mins by ADP-Glo assay
Chain of PI3-kinase p110-alpha/p85-alpha (P27986 whole entry): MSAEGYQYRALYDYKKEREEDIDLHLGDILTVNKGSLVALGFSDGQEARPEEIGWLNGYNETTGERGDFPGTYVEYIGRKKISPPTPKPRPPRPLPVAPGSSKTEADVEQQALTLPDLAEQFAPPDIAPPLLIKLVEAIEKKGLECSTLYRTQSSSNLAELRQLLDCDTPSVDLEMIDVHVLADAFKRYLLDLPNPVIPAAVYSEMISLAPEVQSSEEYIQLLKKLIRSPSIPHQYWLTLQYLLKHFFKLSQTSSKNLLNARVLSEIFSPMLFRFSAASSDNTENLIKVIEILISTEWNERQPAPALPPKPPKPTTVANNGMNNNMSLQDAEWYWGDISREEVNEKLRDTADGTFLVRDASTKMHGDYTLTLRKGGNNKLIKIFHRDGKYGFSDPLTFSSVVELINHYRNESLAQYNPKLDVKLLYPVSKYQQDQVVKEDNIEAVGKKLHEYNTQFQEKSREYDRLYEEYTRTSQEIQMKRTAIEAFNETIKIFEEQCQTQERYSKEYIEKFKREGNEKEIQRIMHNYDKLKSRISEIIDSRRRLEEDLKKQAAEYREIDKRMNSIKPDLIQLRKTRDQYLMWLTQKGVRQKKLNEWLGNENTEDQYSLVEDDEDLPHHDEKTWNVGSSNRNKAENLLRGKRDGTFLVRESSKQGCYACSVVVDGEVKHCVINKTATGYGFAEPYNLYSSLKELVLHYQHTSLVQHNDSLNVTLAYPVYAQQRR
Chain of PI3-kinase p110-alpha/p85-alpha (P42336 whole entry): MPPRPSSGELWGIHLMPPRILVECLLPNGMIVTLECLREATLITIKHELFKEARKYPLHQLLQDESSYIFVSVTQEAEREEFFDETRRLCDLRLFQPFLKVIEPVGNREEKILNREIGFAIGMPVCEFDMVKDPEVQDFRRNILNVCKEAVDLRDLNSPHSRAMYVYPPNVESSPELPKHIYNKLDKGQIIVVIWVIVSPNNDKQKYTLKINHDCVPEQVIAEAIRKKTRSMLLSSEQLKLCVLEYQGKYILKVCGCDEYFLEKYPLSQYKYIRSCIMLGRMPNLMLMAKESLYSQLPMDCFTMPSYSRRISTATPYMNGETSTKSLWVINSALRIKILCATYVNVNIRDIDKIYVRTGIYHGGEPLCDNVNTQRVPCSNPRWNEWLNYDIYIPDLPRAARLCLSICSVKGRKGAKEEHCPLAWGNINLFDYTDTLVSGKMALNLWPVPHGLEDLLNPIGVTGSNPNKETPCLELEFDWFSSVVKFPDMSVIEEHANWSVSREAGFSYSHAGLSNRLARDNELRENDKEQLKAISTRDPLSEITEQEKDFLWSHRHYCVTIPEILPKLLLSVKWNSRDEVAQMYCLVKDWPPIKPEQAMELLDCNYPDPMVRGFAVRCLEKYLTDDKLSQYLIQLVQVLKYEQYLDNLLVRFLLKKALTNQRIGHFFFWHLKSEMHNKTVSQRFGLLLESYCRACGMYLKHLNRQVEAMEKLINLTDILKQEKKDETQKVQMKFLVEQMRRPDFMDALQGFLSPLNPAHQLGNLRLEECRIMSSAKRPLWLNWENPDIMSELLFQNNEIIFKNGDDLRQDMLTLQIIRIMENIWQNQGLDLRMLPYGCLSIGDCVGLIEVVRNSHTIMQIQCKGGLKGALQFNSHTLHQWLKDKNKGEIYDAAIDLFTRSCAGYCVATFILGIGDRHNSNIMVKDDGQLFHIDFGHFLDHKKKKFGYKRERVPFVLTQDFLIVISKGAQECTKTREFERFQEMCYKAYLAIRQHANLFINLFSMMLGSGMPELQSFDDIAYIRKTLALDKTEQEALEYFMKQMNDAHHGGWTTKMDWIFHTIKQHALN

PI3K p110 beta/p85 alpha = PI3K p110 beta/p85 alpha (Homo sapiens, UniProt P42338); assay: Inhibition of recombinant full length human N-terminal His6-tagged PI3K p110beta/p85alpha expressed in baculovirus infected Sf21 cells using lipid substrate after 60 mins by ADP-Glo assay
Chain of PI3K p110 beta/p85 alpha (P27986 whole entry, canonical isoform): as the sequence (P27986 whole entry) above
Chain of PI3K p110 beta/p85 alpha (P42338 whole entry, canonical isoform): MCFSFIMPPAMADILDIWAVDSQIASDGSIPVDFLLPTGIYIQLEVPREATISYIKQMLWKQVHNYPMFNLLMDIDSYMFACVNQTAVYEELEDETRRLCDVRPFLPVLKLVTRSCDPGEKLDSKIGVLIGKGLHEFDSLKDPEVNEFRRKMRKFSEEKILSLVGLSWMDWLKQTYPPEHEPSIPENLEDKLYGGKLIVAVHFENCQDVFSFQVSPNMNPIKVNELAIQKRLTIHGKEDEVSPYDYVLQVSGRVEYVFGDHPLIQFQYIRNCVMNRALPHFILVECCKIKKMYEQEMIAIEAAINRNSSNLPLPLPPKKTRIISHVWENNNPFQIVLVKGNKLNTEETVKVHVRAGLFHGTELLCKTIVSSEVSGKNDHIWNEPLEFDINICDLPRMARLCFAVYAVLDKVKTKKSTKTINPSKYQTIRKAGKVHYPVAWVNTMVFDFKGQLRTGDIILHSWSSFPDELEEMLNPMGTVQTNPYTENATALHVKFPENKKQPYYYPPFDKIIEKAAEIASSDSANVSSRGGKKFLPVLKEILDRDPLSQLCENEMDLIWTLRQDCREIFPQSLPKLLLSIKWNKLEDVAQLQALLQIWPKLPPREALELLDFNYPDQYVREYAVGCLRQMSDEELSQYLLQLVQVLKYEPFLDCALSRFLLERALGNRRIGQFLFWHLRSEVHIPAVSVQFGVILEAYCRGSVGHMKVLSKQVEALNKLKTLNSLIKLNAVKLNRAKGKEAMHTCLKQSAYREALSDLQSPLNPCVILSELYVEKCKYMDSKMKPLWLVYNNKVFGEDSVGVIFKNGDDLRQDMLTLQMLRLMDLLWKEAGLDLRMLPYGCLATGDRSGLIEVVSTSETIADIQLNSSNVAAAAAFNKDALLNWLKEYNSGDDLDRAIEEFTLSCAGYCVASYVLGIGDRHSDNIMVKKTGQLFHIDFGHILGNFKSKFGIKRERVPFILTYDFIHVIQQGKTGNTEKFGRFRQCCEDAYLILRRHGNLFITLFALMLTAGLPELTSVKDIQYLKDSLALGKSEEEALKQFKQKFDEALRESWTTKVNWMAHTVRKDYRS

[10] = biological target: T1, Phosphatidylinositol 4,5-bisphosphate 3-kinase catalytic subunit gamma isoform (Homo sapiens, UniProt P48736); assay: Inhibition of recombinant human full length His-tagged PI3K p110gamma expressed in baculovirus expression system using lipid substrate after 60 mins by ADP-Glo assay
T1 sequence (P48736 whole entry, canonical isoform): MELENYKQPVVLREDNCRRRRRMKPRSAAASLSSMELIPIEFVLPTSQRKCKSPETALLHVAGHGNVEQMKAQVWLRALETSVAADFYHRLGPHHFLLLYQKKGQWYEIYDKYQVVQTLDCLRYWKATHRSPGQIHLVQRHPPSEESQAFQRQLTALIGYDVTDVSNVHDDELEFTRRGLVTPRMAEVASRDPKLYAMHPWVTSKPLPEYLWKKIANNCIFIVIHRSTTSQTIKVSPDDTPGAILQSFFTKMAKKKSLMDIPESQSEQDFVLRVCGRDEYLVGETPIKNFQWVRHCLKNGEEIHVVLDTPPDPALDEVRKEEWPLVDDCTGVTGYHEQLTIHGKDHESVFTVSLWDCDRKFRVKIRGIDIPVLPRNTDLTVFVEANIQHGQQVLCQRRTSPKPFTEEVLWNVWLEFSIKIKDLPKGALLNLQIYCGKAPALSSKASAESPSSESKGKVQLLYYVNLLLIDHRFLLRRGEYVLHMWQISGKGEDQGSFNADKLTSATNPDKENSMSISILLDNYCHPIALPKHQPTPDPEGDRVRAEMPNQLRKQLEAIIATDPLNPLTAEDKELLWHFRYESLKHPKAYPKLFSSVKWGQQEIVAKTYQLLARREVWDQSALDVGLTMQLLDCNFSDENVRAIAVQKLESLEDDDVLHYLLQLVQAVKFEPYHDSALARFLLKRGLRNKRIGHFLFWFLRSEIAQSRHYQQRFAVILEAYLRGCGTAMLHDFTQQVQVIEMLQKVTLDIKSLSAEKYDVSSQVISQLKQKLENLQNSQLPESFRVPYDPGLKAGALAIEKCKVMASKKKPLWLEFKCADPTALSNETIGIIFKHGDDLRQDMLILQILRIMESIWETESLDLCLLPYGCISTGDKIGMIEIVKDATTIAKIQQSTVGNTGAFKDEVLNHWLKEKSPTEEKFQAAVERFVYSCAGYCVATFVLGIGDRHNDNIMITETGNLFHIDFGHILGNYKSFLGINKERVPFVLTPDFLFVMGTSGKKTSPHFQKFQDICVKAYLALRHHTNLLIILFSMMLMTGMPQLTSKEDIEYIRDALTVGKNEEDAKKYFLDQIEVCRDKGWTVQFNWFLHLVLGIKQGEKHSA

[11] = biological target: Serine/threonine-protein kinase mTOR (Homo sapiens, UniProt P42345); assay: Inhibition of recombinant human N-terminal FLAG-tagged mTOR (1362-end residues)
Raji [12] = assay: Antiproliferative activity against human Raji cells at 40 uM after 48 hrs by MTT assay relative to control; format: functional
HL-60 [13] = assay: Antiproliferative activity against human HL60 cells at 40 uM after 48 hrs by MTT assay relative to control; format: functional
[14] = Inhibition of PI3K (unknown origin); set-up: species or system Homo sapiens
[15] = biological target: Phosphatidylinositol 4,5-bisphosphate 3-kinase catalytic subunit alpha isoform (Homo sapiens, UniProt P42336); assay: Inhibition of PI3Kalpha (unknown origin)
Chain of Phosphatidylinositol 4,5-bisphosphate 3-kinase catalytic subunit alpha isoform (P42336 whole entry, canonical isoform): as the sequence (P42336 whole entry) above

[16] = biological target: Phosphatidylinositol 4,5-bisphosphate 3-kinase catalytic subunit beta isoform (Homo sapiens, UniProt P42338); assay: Inhibition of PI3Kbeta (unknown origin)
Chain of Phosphatidylinositol 4,5-bisphosphate 3-kinase catalytic subunit beta isoform (P42338 whole entry, canonical isoform): as the sequence (P42338 whole entry, canonical isoform) above

[17] = biological target: T1, Phosphatidylinositol 4,5-bisphosphate 3-kinase catalytic subunit gamma isoform; assay: Inhibition of PI3Kgamma (unknown origin)

| IC50 (Raji [1]) [µM] | IC50 (HL-60 [2]) [µM] | IC50 (K562 [4]) [µM] | inhibition [7] | Structure (SMILES) | also measured |
| --- | --- | --- | --- | --- | --- |
| 39.5 | 12.7 |  |  | COc1ccc(-c2ccc3oc4ccc(=O)n(-c5ccc(NCC(=O)O)cc5)c4c3c2)cn1 | Activity (K562 [3]): 46% |
| 15.3 | 8.4 | 5.9 |  | CCN(CC)CC(=O)Nc1ccc(-n2c(=O)ccc3oc4ccc(-c5ccc(OC)nc5)cc4c32)cc1 |  |
| 5.2 | 4.2 | 11.1 | 45.8% | C=CC(=O)Nc1ccc(-n2c(=O)ccc3oc4ccc(-c5cccnc5)cc4c32)cc1 | Reduction in Akt Ser-473 phosphorylation (K562 [5]): Active; IC50 [6]: 0.136 µM; IC50 [8]: 0.275 µM; IC50 [9]: 0.254 µM; IC50 (PI3K p110 beta/p85 alpha): 0.838 µM; IC50 [10]: 0.684 µM; IC50 [11]: 0.228 µM |
|  |  |  |  | CCOC(=O)CNc1ccc(-n2c(=O)ccc3oc4ccc(-c5ccc(OC)nc5)cc4c32)cc1 | Activity (Raji [12]): inactive; Activity (HL-60 [13]): 46%; Activity (K562 [3]): 29.4% |
|  |  |  |  | C=CC(=O)Nc1ccc(-n2c(=O)ccc3oc4ccc(-c5ccc(C(=O)O)cc5)cc4c32)cc1 | Activity (Raji [12]): 38%; Activity (HL-60 [13]): 22.2%; Activity (K562 [3]): inactive |
| 5.3 | 10 | 6.9 | inactive | C=CC(=O)Nc1ccc(-n2c(=O)ccc3oc4ccc(-c5cccc(N)c5)cc4c32)cc1 |  |
| 6.26 | 3.2 | 3.5 |  | CNCC(=O)Nc1ccc(-n2c(=O)ccc3oc4ccc(-c5ccc(OC)nc5)cc4c32)cc1 |  |
| 16.7 | 15.5 | 16.2 |  | COc1ccc(-c2ccc3oc4ccc(=O)n(-c5ccc(NS(C)(=O)=O)cc5)c4c3c2)cn1 |  |
| 8.01 | 4.9 | 2.6 | inactive | COc1ccc(-c2ccc3oc4ccc(=O)n(-c5ccc(NC(=O)CN6CCCCC6)cc5)c4c3c2)cn1 | Reduction in Akt Ser-473 phosphorylation (K562 [5]): Active; IC50 [6]: 0.106 µM |
|  |  |  |  | C=CC(=O)N1CCc2ccc(-n3c(=O)ccc4cnc5ccc(-c6cnn(C)c6)cc5c43)cc21 | IC50 [14]: 0.69 µM |
| 11.3 | 5.4 | 6.5 | inactive | COc1ccc(-c2ccc3oc4ccc(=O)n(-c5ccc(NC(=O)CN6CCCC6)cc5)c4c3c2)cn1 | IC50 [6]: 0.183 µM |
| 4.3 | 1 | 5.7 | 64.4% | Cn1c(=O)n(-c2ccc(C(C)(C)C#N)cc2)c2c3cc(-c4cnc5ccccc5c4)ccc3ncc21 [DACTOLISIB] | Reduction in Akt Ser-473 phosphorylation (K562 [5]): Active |
| 25 | 28.2 |  |  | C=CC(=O)Nc1ccc(-n2c(=O)ccc3oc4ccc(-c5cccc([N+](=O)[O-])c5)cc4c32)cc1 | Activity (K562 [3]): 39% |
| 5.84 | 5.5 | 1.3 | inactive | COc1ccc(-c2ccc3oc4ccc(=O)n(-c5ccc(NC(=O)CN6CCNCC6)cc5)c4c3c2)cn1 | Reduction in Akt Ser-473 phosphorylation (K562 [5]): Active |
| 3.9 | 3.9 | 5.7 | 4.2% | C=CC(=O)Nc1ccc(-n2c(=O)ccc3oc4ccc(-c5ccc(O)cc5)cc4c32)cc1 |  |
|  | 17.9 | 31 | inactive | C=CC(=O)Nc1ccc(-n2c(=O)ccc3oc4ccc(-c5ccc(OC)nc5)cc4c32)cc1 | Reduction in Akt Ser-473 phosphorylation (K562 [5]): Active; Activity (Raji [12]): 35% |
|  |  | 17 |  | COc1ccc(-c2ccc3oc4ccc(=O)n(-c5ccc(NC(=O)C(F)(F)F)cc5)c4c3c2)cn1 | Activity (Raji [12]): 10%; Activity (HL-60 [13]): 35.4% |
| 12.8 | 4 | 4.1 | inactive | COc1ccc(-c2ccc3oc4ccc(=O)n(-c5ccc(NC(=O)CN(C)C)cc5)c4c3c2)cn1 | Reduction in Akt Ser-473 phosphorylation (K562 [5]): Active; IC50 [6]: 0.237 µM |
| 9.72 | 3.2 | 4.7 | inactive | COc1ccc(-c2ccc3oc4ccc(=O)n(-c5ccc(NC(=O)CN6CCN(C)CC6)cc5)c4c3c2)cn1 | IC50 [6]: 0.139 µM |
|  |  |  |  | COc1ccc(-c2ccc3ncc4c(c3c2)n(-c2ccc(N3CCNCC3)c(C(F)(F)F)c2)c(=O)n4C)cn1 [BGT-226 FREE BASE] | IC50 [15]: 0.004 µM; IC50 [16]: 0.063 µM; IC50 [17]: 0.038 µM |
|  |  |  |  | COc1ccc(-c2ccc3oc4ccc(=O)n(-c5ccc(N)cc5)c4c3c2)cn1 | Activity (Raji [12]): 41.5%; Activity (HL-60 [13]): 21.5%; Activity (K562 [3]): 17.6% |
| 13.2 | 4 | 10 | 11.6% | COc1ccc(-c2ccc3oc4ccc(=O)n(-c5ccc(NC(=O)CN6CCOCC6)cc5)c4c3c2)cn1 | IC50 [6]: 0.2 µM |
| 39 |  |  |  | COc1ccc(-c2ccc3oc4ccc(=O)n(-c5ccc(NC(C)=O)cc5)c4c3c2)cn1 | Activity (K562 [3]): 47.5% |
| 15.7 | 7.3 | 10.2 |  | C=CC(=O)Nc1ccc(-n2c(=O)ccc3oc4ccc(-c5cccc6[nH]ccc56)cc4c32)cc1 |  |
| 2.4 | 12.6 | 9.6 | 4.8% | C=CC(=O)Nc1ccc(-n2c(=O)ccc3oc4ccc(-c5cnn(C)c5)cc4c32)cc1 | Reduction in Akt Ser-473 phosphorylation (K562 [5]): Active; IC50 [6]: 0.217 µM |
|  |  |  |  | COc1ccc(-c2ccc3oc4ccc(=O)n(-c5ccc([N+](=O)[O-])cc5)c4c3c2)cn1 | Activity (Raji [12]): inactive; Activity (HL-60 [13]): inactive; Activity (K562 [3]): 28.8% |
|  |  |  |  | C=CC(=O)Nc1ccc(-n2c(=O)ccc3oc4ccc(-c5ccc(OC)cc5)cc4c32)cc1 | Activity (Raji [12]): inactive; Activity (K562 [3]): 28.3% |

| Structure (SMILES) | IC50 (Raji [1]) [µM] | IC50 (HL-60 [2]) [µM] | IC50 (K562 [4]) [µM] | inhibition [7] | also measured |
| --- | --- | --- | --- | --- | --- |
| C=CC(=O)N1CCC[C@@H](n2nc(-c3ccc(Oc4ccccc4)cc3)c3c(N)ncnc32)C1 [IBRUTINIB] | 14.2 | 8 | 7.5 |  |  |
